Measured values published in patent publication US12371464B2, “Polypeptides and uses thereof” (MEDIMMUNE LIMITED, priority 2020, dated 2025).
Numbered stars: 1 amine (or outer) side, 2 acyl side, 3 side chain; on linkers, the order of the positions; unused ones are H or OH. Bridge positions count the residues as written; N and C are the ends. Side chains are listed from the residue outwards. Peptide text beside a SMILES is read from it. * marks the point of attachment. C20 diacid = O=C(O)CCCCCCCCCCCCCCCCCCC(=O)*; γGlu = O=C(O)[C@H](CCC(=O)[*:2])N[*:1]

Experiments:
[1] = target: T1, human amylin receptor (calcitonin receptor co-expressed with receptor activity modifying protein, RAMP3) (hAMYR3) (Homo sapiens, UniProt O60896+P30988); test: cAMP production in 1321N1 cells with stable recombinant expression of human amylin receptor (hAMYR3); format: cell-based; settings: cAMP production, 1321N1 cells expressing human amylin3 receptor
T1 construct: expressed in transfected cells
T1 sequence (P30988 25-474): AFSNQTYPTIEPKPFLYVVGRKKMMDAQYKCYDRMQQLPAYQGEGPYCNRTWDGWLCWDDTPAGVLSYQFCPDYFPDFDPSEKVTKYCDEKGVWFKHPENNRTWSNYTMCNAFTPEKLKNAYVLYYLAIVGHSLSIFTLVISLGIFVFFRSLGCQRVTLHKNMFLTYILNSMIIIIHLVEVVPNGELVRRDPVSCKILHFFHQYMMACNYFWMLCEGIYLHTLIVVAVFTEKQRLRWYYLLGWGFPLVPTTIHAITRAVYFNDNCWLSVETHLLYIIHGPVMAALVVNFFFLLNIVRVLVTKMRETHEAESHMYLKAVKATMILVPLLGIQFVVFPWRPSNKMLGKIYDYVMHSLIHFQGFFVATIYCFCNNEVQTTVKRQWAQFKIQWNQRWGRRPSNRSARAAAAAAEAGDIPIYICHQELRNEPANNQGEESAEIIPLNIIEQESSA
T1 sequence (O60896 24-148 partner): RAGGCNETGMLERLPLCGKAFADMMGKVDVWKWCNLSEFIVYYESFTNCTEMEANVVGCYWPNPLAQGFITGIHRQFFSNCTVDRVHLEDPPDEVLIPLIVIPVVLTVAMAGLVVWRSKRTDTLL
Protocol: (§1) The functional activities of lipidated pramlintide analogue peptides, such as cAMP production, were tested in 1321N1 cell line with stable recombinant expression of human calcitonin receptor (hCTR) or human amylin receptor (calcitonin receptor co-expressed with receptor activity modifying protein, RAMP3) (hAMYR3) or HEK cells with stable recombinant expression of rat calcitonin receptor (rat CTR) or rat amylin receptor (calcitonin receptor co-expressed with receptor activity modifying protein, RAMP3) (Rat AMYR3).
(§2) Cryopreserved cell stock was thawed rapidly in a water-bath, suspended in assay buffer (0.1% BSA (Sigma #A3059) in HBSS (Sigma #H8264) with 25 mM HEPES, pH 7.4 and containing 0.5 mM IB MX (Sigma #17018)) and spun at 240×g for 5 minutes. Cells were re-suspended in assay buffer at a batch-dependent optimized concentration (e.g. hCTR cells at 0.125×10^5 cells/mL, hAMYR3 cells at 0.125×10^5 cells/mL, rat CTR cells at 1×10^5 cells/mL, rat AMYR3 at 2×10^5 cells/mL).
(§3) The test peptide stock was prepared in DMSO and diluted in assay buffer to reach stated concentrations and transferred in duplicates into a 384-black shallow well microtitre assay plate (Corning #3676). Cells were added to the assay plate, incubated at room temperature for 30 minutes and the CAMP level measured using CAMP dynamic 2 HTRF kit (Cisbio, Cat #62AM4PEJ), following the two step protocol as per manufacturer's recommendations. The plates were read on an Envision (Perkin Elmer) using excitation wavelength of 320 nm and emission wavelengths of 620 nm & 665 nm.
(§4) Data was transformed to % Delta F as described in the manufacturer's guidelines and analyzed as percent activation of maximal amylin or calcitonin effect by 4-parameter logistic fit to determine EC50 values. The selectivity of a peptide to hAMYR vs hCTR is defined as a ratio of EC50 values at the two receptors.

[2] = target: T2, rat amylin receptor (calcitonin receptor co-expressed with receptor activity modifying protein, RAMP3) (Rat AMYR3) (Rattus norvegicus, UniProt P32214+Q9JJ73); test: cAMP production in HEK cells with stable recombinant expression of rat amylin receptor (Rat AMYR3); format: cell-based; settings: cAMP HTRF, assay buffer with 0.1% BSA, 30 minutes
T2 construct: expressed in transfected cells
T2 sequence (P32214 25-516): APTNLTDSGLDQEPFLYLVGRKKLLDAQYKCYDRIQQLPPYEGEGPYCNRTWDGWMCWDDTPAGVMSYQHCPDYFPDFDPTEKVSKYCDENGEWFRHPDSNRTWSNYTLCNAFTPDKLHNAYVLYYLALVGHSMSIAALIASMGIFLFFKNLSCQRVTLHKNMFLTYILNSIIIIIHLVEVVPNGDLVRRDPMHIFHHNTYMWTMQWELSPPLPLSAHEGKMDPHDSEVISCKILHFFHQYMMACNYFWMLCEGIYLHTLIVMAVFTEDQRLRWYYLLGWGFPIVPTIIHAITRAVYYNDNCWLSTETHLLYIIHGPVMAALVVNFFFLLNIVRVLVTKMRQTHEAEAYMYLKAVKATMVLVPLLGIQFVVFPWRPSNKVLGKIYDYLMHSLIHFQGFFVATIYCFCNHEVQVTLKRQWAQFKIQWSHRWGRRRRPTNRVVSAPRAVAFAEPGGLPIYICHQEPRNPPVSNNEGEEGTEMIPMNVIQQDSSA
T2 sequence (Q9JJ73 23-147 partner): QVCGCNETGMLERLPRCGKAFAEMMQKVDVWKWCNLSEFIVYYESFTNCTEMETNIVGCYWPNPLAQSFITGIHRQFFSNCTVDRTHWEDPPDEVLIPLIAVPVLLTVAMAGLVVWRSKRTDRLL
Protocol: as §1, with “AMYR3). […]” for “AMYR3).”
as §3
(§5) Data was transformed to % Delta F as described in the manufacturer's guidelines and analyzed as percent activation of maximal amylin or calcitonin effect by 4-parameter logistic fit to determine EC50 values. […]

lean rats = test: Rat acute food intake study; format: in vivo, Sprague Dawley rats; settings: 20 nmol/kg subcutaneously
[3] = target: T3, rat calcitonin receptor (rat CTR) (Rattus norvegicus, UniProt P32214); test: cAMP production in HEK cells with stable recombinant expression of rat calcitonin receptor (rat CTR); format: cell-based; settings: cAMP HTRF, assay buffer with 0.1% BSA, 30 minutes
T3 construct: expressed in transfected cells
T3 sequence (P32214 25-516): T2 sequence (P32214 25-516)
Protocol: as §1, with “AMYR3). […]” for “AMYR3).”
as §3, §5

[4] = target: T4, human calcitonin receptor (hCTR) (Homo sapiens, UniProt P30988); test: cAMP production in 1321N1 cells with stable recombinant expression of human calcitonin receptor (hCTR); format: cell-based; settings: 1321N1 cells expressing human calcitonin receptor
T4 construct: expressed in transfected cells
T4 sequence (P30988 25-474): T1 sequence (P30988 25-474)
Protocol: as §1, §2, §3, §4

Structure (SMILES)	EC50 [1] [nM]	EC50 [2] [nM]	Cummulative food intake (% vehicle treated intake) At 12 h (lean rats) [% vehicle treated intake]	Cummulative food intake (% vehicle treated intake) At 24 h (lean rats) [% vehicle treated intake]	Cummulative food intake (% vehicle treated intake) At 48 h (lean rats) [% vehicle treated intake]	EC50 [3] [nM]	EC50 [4] [nM]
CC[C@H](C)[C@H](NC(=O)[C@@H]1CCCN1C(=O)CNC(=O)[C@H](Cc1ccccc1)NC(=O)[C@H](CC(N)=O)NC(=O)[C@H](CC(N)=O)NC(=O)[C@H](CO)NC(=O)[C@H](CO)NC(=O)[C@H](Cc1c[nH]cn1)NC(=O)[C@@H](NC(=O)[C@H](CC(C)C)NC(=O)[C@H](Cc1ccccc1)NC(=O)[C@H](CC(N)=O)NC(=O)[C@H](C)NC(=O)[C@H](CC(C)C)NC(=O)[C@H](CCCNC(=N)N)NC(=O)[C@H](CCC(N)=O)NC(=O)[C@@H](NC(=O)[C@H](C)NC(=O)[C@@H]1CSSC[C@H](NC(=O)[C@@H](N)CCCCNC(=O)CC[C@H](NC(=O)CC[C@H](NC(=O)CCCCCCCCCCCCCCCCCCC(=O)O)C(=O)O)C(=O)O)C(=O)N[C@@H](CC(N)=O)C(=O)N[C@@H]([C@@H](C)O)C(=O)N[C@@H](C)C(=O)N[C@@H]([C@@H](C)O)C(=O)N1)[C@@H](C)O)C(C)C)C(=O)N[C@@H](CC(C)C)C(=O)N1CCC[C@H]1C(=O)N1CCC[C@H]1C(=O)N[C@H](C(=O)N[C@@H](CC(N)=O)C(=O)N[C@H](C(=O)NCC(=O)N[C@@H](CO)C(=O)N[C@@H](CCCNC(=N)N)C(=O)N[C@H](C(=O)N[C@@H](Cc1ccc(O)cc1)C(N)=O)[C@@H](C)O)C(C)C)[C@@H](C)O [Peptide 114] (H-K([γGlu-γGlu-C20 diacid])CNTATCATQRLANFLVHSSNNFGPILPPTNVGSRTY-NH2; disulfide 2-7; N-terminus assumed)	1.32	0.0122	42.3	45.1	53.8	4.87	15.8
CC[C@H](C)[C@H](NC(=O)[C@H](C)NC(=O)[C@@H]1CCCN1C(=O)[C@H](Cc1ccccc1)NC(=O)[C@H](CC(N)=O)NC(=O)[C@@H]1CCCN1C(=O)[C@H](CO)NC(=O)[C@H](CO)NC(=O)[C@H](Cc1c[nH]cn1)NC(=O)[C@@H](NC(=O)[C@H](CC(C)C)NC(=O)[C@H](Cc1ccccc1)NC(=O)[C@H](CC(N)=O)NC(=O)[C@H](C)NC(=O)[C@H](CC(C)C)NC(=O)[C@H](CCCNC(=N)N)NC(=O)[C@H](CCC(N)=O)NC(=O)[C@@H](NC(=O)[C@H](C)NC(=O)[C@@H]1CSSC[C@H](NC(=O)[C@@H](N)CCCCNC(=O)CC[C@H](NC(=O)CC[C@H](NC(=O)CCCCCCCCCCCCCCCCCCC(=O)O)C(=O)O)C(=O)O)C(=O)N[C@@H](CC(N)=O)C(=O)N[C@@H]([C@@H](C)O)C(=O)N[C@@H](C)C(=O)N[C@@H]([C@@H](C)O)C(=O)N1)[C@@H](C)O)C(C)C)C(=O)N[C@@H](CC(C)C)C(=O)N[C@@H](CO)C(=O)N1CCC[C@H]1C(=O)N[C@H](C(=O)N[C@@H](CC(N)=O)C(=O)N[C@H](C(=O)NCC(=O)N[C@@H](CO)C(=O)N[C@@H](CC(N)=O)C(=O)N[C@H](C(=O)N[C@@H](Cc1ccc(O)cc1)C(N)=O)[C@@H](C)O)C(C)C)[C@@H](C)O [Peptide 115] (H-K([γGlu-γGlu-C20 diacid])CNTATCATQRLANFLVHSSPNFPAILSPTNVGSNTY-NH2; disulfide 2-7; N-terminus assumed)	0.703	0.0226	42.4	41.3	52.2	22.6	7.65
